≈ marks a conversion by molar mass, not a printed value. Where “and” joins values, the source holds several entries; their conditions need not be identical. Equal values may be shown once. Read-outs that look alike come from different tables or passages of the source.
How the values were obtained:
Influenza viruses = conditions: cited from earlier work
Influenza A/NWS/33 virus [1] = conditions: i.p. once daily for 8 days
[2] = tested on: Respiratory syncytial virus (RSV); assay: microbe, parasite or virus in culture; assay type: cell-based; conditions: human respiratory syncytial virus
Parainfluenza virus 3 = assay: microbe, parasite or virus in culture; assay type: cell-based
Influenza A = assay: microbe, parasite or virus in culture; assay type: cell-based; conditions: for EC50: Influenza A virus
Influenza B = assay: microbe, parasite or virus in culture; assay type: cell-based; conditions: for ED50: FLU-B; for EC50: Influenza B virus
Adenovirus 5 = assay: In vitro antiviral assay, inhibition of CPE, adenovirus 5; assay type: cell-based; conditions: Human mastadenovirus C, HEp-2, HEp2 cells, Table 1 experiment 2, read-out: ED50 (the source's name)
Adenovirus 7 = assay: In vitro antiviral assay, inhibition of CPE, adenovirus 7; assay type: cell-based; conditions: Human mastadenovirus B, HEp-2, HEp2 cells, Table 1 experiments 2-3, read-out: ED50 (the source's name)
Measles = assay: In vitro antiviral assay, inhibition of CPE, measles; assay type: cell-based, Measles virus; conditions: Measles morbillivirus, HEp-2, HEp2 cells, Table 1 experiments 1-2, read-out: ED50 (the source's name)
RSV A2 [3] = assay: RSV infection of cotton rats, intraperitoneal dosing, lung titer; assay type: in vivo, Hispid Cotton Rats; conditions: for % kill: versus control; for ED50: 3-day intraperitoneal dosing
Procedure: Control animals received an equal volume of distilled water. […] All animals were killed on day 5. Lungs were removed and washed via transpleural lavage. The fluid collected was assessed for RSV titer in a microtiter assay using HEp2 cells.
(§1) Tissue control wells contained medium, but no virus. […] Virus control wells were observed daily. […] In addition to visual CPE, inhibition of syncytia formation is used to confirm activity against RSV. Lung RSV titer logm was calculated as described by Dubovi et al., 1983; 1984.

RSV A2 [4] = assay: RSV infection of cotton rats, oral dosing, lung titer; assay type: in vivo, Hispid Cotton Rats; conditions: for ED50: human respiratory syncytial virus, 72 h, 3-day oral dosing
Procedure: as §1
All animals were killed on day 5 and lung tissues were collected. Lungs were removed and washed via transpleural lavage. The fluid collected was assessed for RSV titer in a microtiter assay using HEp2 cells as described above.

Influenza A/NWS/33 virus [5] = conditions: for influenza inhibition (words): 75 mg/kg/day i.p.
[6] = Table 16; 75 mg/kg/day i.p. bid × 5; female
RSV or influenza virus = conditions: cited from earlier work
PIV-1 = assay: In vitro antiviral assay, inhibition of CPE, PIV-1
[7] = Persinos et al., 1979; cited from earlier work
[8] = tested on: RNA-directed DNA polymerase; conditions: Sethi, 1977; cited from earlier work
[9] = 75 mg/kg/day i.p. bid × 5, days 2, 4, 6, 8
[10] = 75 mg/kg/day i.p. bid × 5 from 4 hr post-virus, female

## Cl.NC12CC3CC(CC(C3)C1)C2 [Amantadine, 1-Adamantanamine HCL]
Influenza viruses
  central nervous system side effects: causes some central nervous system side effects
  shortening of fever duration and respiratory symptoms: about 50%
Influenza A/NWS/33 virus [1]
  inhibition of influenza A infection (overall words): ineffective

## NC(=O)c1ncn([C@@H]2O[C@H](CO)[C@@H](O)[C@H]2O)n1 [Ribavirin, 1-β-D-ribofuranosyl-1,2,4-triazole 3-carboxamide]
[2]; HEp-2, RSV B-46791, read-out: ED50 (the source's name)
  EC50: 8 µg/mL (≈ 32.8 µM)
[2]; HEp-2, RSV B-47063, read-out: ED50 (the source's name)
  EC50: 12 µg/mL (≈ 49.1 µM)
[2]; HEp-2, RSV, mean of all strains, read-out: ED50, MEAN
  EC50: 11.9 µg/mL (≈ 48.7 µM)
Parainfluenza virus 3; HEp-2, PIV-3, mean, read-out: ED50, MEAN
  EC50: 15.4 µg/mL (≈ 63.1 µM)
Parainfluenza virus 3; HEp-2, Parainfluenza virus (3), HEp2 cells, Table 1 experiments 1-3, read-out: ED50 (the source's name)
  EC50: 15.6 µg/mL (≈ 63.9 µM)
Parainfluenza virus 3; PIV-3
  ED50: 16.0 µg/mL (≈ 65.5 µM)
Parainfluenza virus 3; Parainfluenza virus (3), HEp2 cells, Table 1 experiments 1-3
  ED50: 15.7 µg/mL and 12 µg/mL
Influenza A; HEp-2, FLU-A, A-Leningrad, read-out: ED50 (the source's name)
  EC50: 6 µg/mL (≈ 24.6 µM)
Influenza A; HEp-2, FLU-A, A-Shanghai, read-out: ED50 (the source's name)
  EC50: 6 µg/mL (≈ 24.6 µM)
Influenza A; HEp-2, FLU-A, B-Japan, read-out: ED50 (the source's name)
  EC50: 1.6 µg/mL (≈ 6.55 µM)
Influenza A; HEp-2, FLU-A, B-NWS/33, read-out: ED50 (the source's name)
  EC50: 1 µg/mL (≈ 4.09 µM)
Influenza A; HEp-2, FLU-A, B-Portchalm, read-out: ED50 (the source's name)
  EC50: 1 µg/mL (≈ 4.09 µM)
Influenza A; HEp-2, FLU-A, mean of all strains, read-out: ED50, MEAN
  EC50: 8.2 µg/mL (≈ 33.6 µM)
Influenza A; HEp-2, Influenza A, HEp2 cells, Table 1 experiments 1-3, read-out: ED50 (the source's name)
  EC50: 15 µg/mL (≈ 61.4 µM)
Influenza A; Influenza A, HEp2 cells, Table 1 experiments 1-3
  ED50: 14.3 µg/mL and 14 µg/mL
Influenza B; B-USSR
  ED50: 7.8 µg/mL (≈ 31.9 µM)
Influenza B; B-Yamagata
  ED50: 8.0 µg/mL (≈ 32.8 µM)
Influenza B; HEp-2, FLU-B, B-HongKong, read-out: ED50 (the source's name)
  EC50: 1 µg/mL (≈ 4.09 µM)
Influenza B; HEp-2, FLU-B, B-USSR, read-out: ED50 (the source's name)
  EC50: 4 µg/mL (≈ 16.4 µM)
Influenza B; HEp-2, FLU-B, B-Yamagata, read-out: ED50 (the source's name)
  EC50: 6 µg/mL (≈ 24.6 µM)
Influenza B; HEp-2, FLU-B, mean of all strains, read-out: ED50, MEAN
  EC50: 5.8 µg/mL (≈ 23.8 µM)
Influenza B; HEp-2, Influenza B, HEp2 cells, Table 1 experiments 1-2, read-out: ED50 (the source's name)
  EC50: 18 µg/mL (≈ 73.7 µM)
Adenovirus 5
  EC50: > 1000 µg/mL
Adenovirus 7
  EC50: > 1000 µg/mL
Measles
  EC50: 31.3 µg/mL (≈ 128 µM)
RSV A2 [3]; 10 mg/kg i.p.
  Lung titer (RSV titer log 10/g lung, Mean ± S.D.): 4.5 ± 0.2 log 10 /g lung
  Lung titer (antilog, in parentheses): 31,622
  % kill: 0%
RSV A2 [3]; 30 mg/kg i.p.
  Lung titer (RSV titer log 10/g lung, Mean ± S.D.): 4.0 ± 0.3 log 10 /g lung
  Lung titer (antilog, in parentheses): 10,000
  % kill: 68.4%
RSV A2 [3]; 40 mg/kg i.p.
  reduction in lung titers: 50%
RSV A2 [3]; 90 mg/kg i.p.
  Lung titer (RSV titer log 10/g lung, Mean ± S.D.): 2.8 ± 0.3 log 10 /g lung
  Lung titer (antilog, in parentheses): 631
  % kill: 98%
RSV A2 [3]; individual experiments
  ED50: 30 mg/kg and 50 mg/kg
RSV A2 [3]; human respiratory syncytial virus, ip, 72 h, individual experiments, read-out: ED50
  ED50: 40 mg/kg
RSV A2 [3]; human respiratory syncytial virus, ip, 72 h, mean, read-out: ED50, Mean ± S.E.M.
  ED50: 40 ± 6 mg/kg
RSV A2 [4]; 40 mg/kg oral
  Lung titer (RSV titer log 10/g lung, Mean ± S.D.): 3.30 ± 0.5 log 10 /g lung
  Lung titer (antilog, in parentheses): 1,995
  reduction in lung titers: > 90%
RSV A2 [4]; 40 mg/kg oral, versus control
  % kill: 80%
RSV A2 [4]; individual experiments, read-out: ED50
  ED50: > 90 mg/kg
RSV A2 [4]; mean, read-out: ED50, Mean ± SEM
  ED50: > 90 mg/kg
Influenza A/NWS/33 virus [5]
  influenza inhibition (words): inhibitory to the virus infection
Influenza A/NWS/33 virus [5]; 75 mg/kg/day i.p. bid × 5, daily for 10 days
  Mean SaO2 %: 81%
Influenza A/NWS/33 virus [5]; [9]
  Mean Score (lung): 0.3
  Mean Virus Titer (log10): 3.9 log10
Influenza A/NWS/33 virus [5]; [10]
  Infected, Treated Surv/Total: 10/10
  MST: > 21.0 days
Influenza A/NWS/33 virus [5]; 75 mg/kg/day i.p. bid × 5 from 4 hr post-virus, female, listed as ribavirin
  Infected, Treated Surv/Total: All infected, ribavirin-treated mice survived the infection
Influenza A/NWS/33 virus [5]; listed as ribavirin
  influenza inhibition (words): significant influenza inhibition
[6]
  Host Wt. Change: 0.6 g
  Toxicity controls Surv/Total: 5/5
In vitro; ID50, FLU-A, B-Japan experiment
  CC50: 78 µg/mL (≈ 319 µM)
In vitro; ID50, FLU-A, B-NWS/33 experiment
  CC50: 100 µg/mL (≈ 409 µM)
In vitro; ID50, FLU-A, B-Portchalm experiment
  CC50: 68 µg/mL (≈ 278 µM)
In vitro; ID50, FLU-B, B-HongKong experiment
  CC50: 80 µg/mL (≈ 328 µM)
In vitro; ID50, MEAN, FLU-A experiments, mean
  CC50: 750 µg/mL (≈ 3070 µM)
In vitro; ID50, MEAN, FLU-B experiments, mean
  CC50: 847 µg/mL (≈ 3470 µM)
In vitro; ID50, MEAN, RSV experiments, mean
  CC50: 946 µg/mL (≈ 3870 µM)
In vitro; ID50, PIV-1 experiment
  CC50: 1000 µg/mL (≈ 4090 µM)
In vitro; ID50, PIV-3 experiment
  CC50: 1000 µg/mL (≈ 4090 µM)
In vitro; ID50, RSV A-Tracy experiment
  CC50: 1000 µg/mL (≈ 4090 µM)
In vitro; ID50, RSV B-18537 experiment
  CC50: 1000 µg/mL (≈ 4090 µM)
In vitro; ID50, RSV B-46791 experiment
  CC50: 1000 µg/mL (≈ 4090 µM)
In vitro; ID50, RSV B-47063 experiment
  CC50: 1000 µg/mL (≈ 4090 µM)
RSV or influenza virus; acute respiratory infections
  severity of illness and amount of virus shed: reduce the severity of illness and amount of virus shed
RSV or influenza virus; in animals
  teratogenicity: teratogenic in animals
PIV-1; HEp-2, read-out: ED50, MEAN, PIV-1, mean
  EC50: 10.7 µg/mL (≈ 43.8 µM)
PIV-1; HEp-2, read-out: ED50, PIV-1
  EC50: 12 µg/mL (≈ 49.1 µM)
PIV-1; PIV-1
  ED50: 8.0 µg/mL (≈ 32.8 µM)

## COc1ccc2c(=O)oc3c(OC)cc(CCN(C)C)c4c(=O)oc1c2c34 [taspine]
[7]
  anti-inflammatory activity: exhibits anti-inflammatory activity
[8]
  RNA-directed DNA polymerase activity: inhibit RNA-directed DNA polymerase activity

From patent publication US5211944A, “Proanthocyanidin polymers having antiviral activity and methods of obtaining same” (Shaman Pharmaceuticals, Inc., priority 1991, dated 1993)
